{
  "source": "patent US11969428B2",
  "about": "“Methods and pharmaceutical compositions for treating lymphoid malignancy” (priority 2011, dated 2024)",
  "assay_in_all_cases": "Ambit KinomeScan screening",
  "type_in_all_cases": "binding",
  "conditions_in_all_cases": "CAL-130 10 μM",
  "key": {"[1]": {"molecular_target": "T1, ERK4 (Homo sapiens, UniProt P31152)", "T1 construct": "unspecified tag (\"tagged kinases\"); purchased Ambit (KinomeScan screening service)", "procedure,_shortened": "(§1)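 Here, % of control binding was determined for tagged kinases captured by an immobilized ligand in the presence of 10 μM CAL-130. Stronger interactions give lower percentages.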"}, "[2]": {"molecular_target": "T2, TAO1 (Homo sapiens, UniProt Q9UL54)", "T2 construct": "tag (kind not specified); purchased Ambit (KinomeScan screening service)", "procedure,_shortened": "as §1"}, "[3]": {"molecular_target": "T3, SRPK3 (Homo sapiens, UniProt Q9UPE1)", "T3 construct": "purchased Ambit (KinomeScan screening service)", "procedure,_shortened": "as §1"}, "[4]": {"molecular_target": "T4, PIK3CD (Homo sapiens, UniProt O00329)", "T4 construct": "unspecified tag; purchased Ambit (KinomeScan screening panel)", "procedure,_shortened": "as §1"}, "[5]": {"molecular_target": "T5, LCK (Homo sapiens, UniProt P06239)", "T5 construct": "unspecified tag ('tagged kinases'); purchased Ambit (KinomeScan screening service)", "procedure,_shortened": "as §1"}, "[6]": {"molecular_target": "T6, PRKD2 (Homo sapiens, UniProt Q9BZL6)", "T6 construct": "purchased Ambit (KinomeScan screening service)", "procedure,_shortened": "as §1"}, "[7]": {"molecular_target": "T7, p38-δ (Homo sapiens, UniProt O15264)", "T7 construct": "purchased Ambit (KinomeScan screening service)", "procedure,_shortened": "as §1"}, "[8]": {"molecular_target": "T8, MAST1 (Homo sapiens, UniProt Q9Y2H9)", "T8 construct": "purchased Ambit (KinomeScan screening)", "procedure,_shortened": "as §1"}, "[9]": {"molecular_target": "T9, ACVR2B (Homo sapiens, UniProt Q13705)", "T9 construct": "purchased Ambit (KinomeScan screening)", "T9 sequence (Q13705 19-512)": "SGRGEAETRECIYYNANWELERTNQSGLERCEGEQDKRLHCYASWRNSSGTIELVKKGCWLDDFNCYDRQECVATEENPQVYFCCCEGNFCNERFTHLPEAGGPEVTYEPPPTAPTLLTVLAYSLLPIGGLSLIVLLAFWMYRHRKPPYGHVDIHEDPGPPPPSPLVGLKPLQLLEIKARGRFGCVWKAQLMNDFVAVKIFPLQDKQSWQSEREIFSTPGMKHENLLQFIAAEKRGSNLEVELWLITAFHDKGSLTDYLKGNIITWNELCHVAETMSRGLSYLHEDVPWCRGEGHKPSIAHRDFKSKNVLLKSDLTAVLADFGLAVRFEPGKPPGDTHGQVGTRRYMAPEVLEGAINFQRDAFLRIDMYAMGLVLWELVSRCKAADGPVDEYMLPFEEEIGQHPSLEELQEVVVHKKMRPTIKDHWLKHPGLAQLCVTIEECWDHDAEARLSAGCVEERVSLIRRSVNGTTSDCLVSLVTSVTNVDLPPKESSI", "procedure,_shortened": "as §1"}, "[10]": {"molecular_target": "T10, KIT (Homo sapiens, UniProt P10721)", "T10 construct": "purchased Ambit (KinomeScan screening)", "T10 sequence (P10721 26-976)": "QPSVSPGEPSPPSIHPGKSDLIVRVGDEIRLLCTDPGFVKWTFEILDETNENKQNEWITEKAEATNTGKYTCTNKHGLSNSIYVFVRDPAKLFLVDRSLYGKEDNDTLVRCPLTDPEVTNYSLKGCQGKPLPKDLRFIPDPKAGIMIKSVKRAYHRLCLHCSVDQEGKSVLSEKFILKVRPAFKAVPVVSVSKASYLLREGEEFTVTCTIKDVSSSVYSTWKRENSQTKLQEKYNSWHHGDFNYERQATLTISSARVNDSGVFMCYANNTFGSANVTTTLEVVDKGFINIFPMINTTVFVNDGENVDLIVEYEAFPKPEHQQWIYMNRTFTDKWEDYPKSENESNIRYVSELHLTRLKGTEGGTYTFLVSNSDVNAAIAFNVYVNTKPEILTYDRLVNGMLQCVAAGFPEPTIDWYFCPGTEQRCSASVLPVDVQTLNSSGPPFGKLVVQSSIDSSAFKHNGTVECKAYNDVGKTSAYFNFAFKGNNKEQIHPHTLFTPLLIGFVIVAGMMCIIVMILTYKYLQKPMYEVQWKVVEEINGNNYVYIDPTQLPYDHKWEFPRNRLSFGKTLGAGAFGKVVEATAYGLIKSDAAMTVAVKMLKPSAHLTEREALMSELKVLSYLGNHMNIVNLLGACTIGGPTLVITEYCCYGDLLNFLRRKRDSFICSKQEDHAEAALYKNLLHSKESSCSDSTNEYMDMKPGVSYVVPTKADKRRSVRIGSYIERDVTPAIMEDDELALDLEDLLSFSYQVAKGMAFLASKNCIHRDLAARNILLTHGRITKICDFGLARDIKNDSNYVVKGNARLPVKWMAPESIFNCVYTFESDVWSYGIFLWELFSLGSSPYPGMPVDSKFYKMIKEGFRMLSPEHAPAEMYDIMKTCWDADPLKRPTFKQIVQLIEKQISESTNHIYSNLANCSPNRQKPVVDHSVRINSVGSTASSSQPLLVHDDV", "procedure,_shortened": "as §1"}, "[11]": {"molecular_target": "T11, FES (Homo sapiens, UniProt P07332)", "T11 construct": "unspecified tag (\"tagged kinases\"); purchased Ambit (KinomeScan screening service)", "procedure,_shortened": "as §1"}, "[12]": {"molecular_target": "T12, HIPK2 (Homo sapiens, UniProt Q9H2X6)", "T12 construct": "unspecified tag ('tagged kinases'); purchased Ambit (KinomeScan screening service)", "procedure,_shortened": "as §1"}, "[13]": {"molecular_target": "T13, TNK1 (Homo sapiens, UniProt Q13470)", "T13 construct": "unspecified tag (tagged kinase); purchased Ambit (KinomeScan screening)", "procedure,_shortened": "as §1"}, "[14]": {"molecular_target": "T14, AKT2 (Homo sapiens, UniProt P31751)", "T14 construct": "purchased Ambit (KinomeScan screening)", "procedure,_shortened": "as §1"}, "[15]": {"molecular_target": "T15, MLK2 (Homo sapiens, UniProt Q02779)", "T15 construct": "unspecified tag ('tagged kinases'); purchased Ambit (KinomeScan screening)", "procedure,_shortened": "as §1"}, "[16]": {"molecular_target": "T16, CAMKK1 (Homo sapiens, UniProt Q8N5S9)", "T16 construct": "purchased Ambit (KinomeScan screening)", "procedure,_shortened": "as §1"}, "[17]": {"molecular_target": "T17, MAPKAPK5 (Homo sapiens, UniProt Q8IW41)", "T17 construct": "Ambit (KinomeScan screening)", "procedure,_shortened": "as §1"}, "[18]": {"molecular_target": "T18, TNK2 (Homo sapiens, UniProt Q07912)", "T18 construct": "unspecified tag (tagged kinase); purchased Ambit (KinomeScan screening)", "procedure,_shortened": "as §1"}, "[19]": {"molecular_target": "T19, BMPR2 (Homo sapiens, UniProt Q13873)", "T19 construct": "unspecified tag (\"tagged kinases\"); purchased Ambit (KinomeScan screening)", "T19 sequence (Q13873 27-1038)": "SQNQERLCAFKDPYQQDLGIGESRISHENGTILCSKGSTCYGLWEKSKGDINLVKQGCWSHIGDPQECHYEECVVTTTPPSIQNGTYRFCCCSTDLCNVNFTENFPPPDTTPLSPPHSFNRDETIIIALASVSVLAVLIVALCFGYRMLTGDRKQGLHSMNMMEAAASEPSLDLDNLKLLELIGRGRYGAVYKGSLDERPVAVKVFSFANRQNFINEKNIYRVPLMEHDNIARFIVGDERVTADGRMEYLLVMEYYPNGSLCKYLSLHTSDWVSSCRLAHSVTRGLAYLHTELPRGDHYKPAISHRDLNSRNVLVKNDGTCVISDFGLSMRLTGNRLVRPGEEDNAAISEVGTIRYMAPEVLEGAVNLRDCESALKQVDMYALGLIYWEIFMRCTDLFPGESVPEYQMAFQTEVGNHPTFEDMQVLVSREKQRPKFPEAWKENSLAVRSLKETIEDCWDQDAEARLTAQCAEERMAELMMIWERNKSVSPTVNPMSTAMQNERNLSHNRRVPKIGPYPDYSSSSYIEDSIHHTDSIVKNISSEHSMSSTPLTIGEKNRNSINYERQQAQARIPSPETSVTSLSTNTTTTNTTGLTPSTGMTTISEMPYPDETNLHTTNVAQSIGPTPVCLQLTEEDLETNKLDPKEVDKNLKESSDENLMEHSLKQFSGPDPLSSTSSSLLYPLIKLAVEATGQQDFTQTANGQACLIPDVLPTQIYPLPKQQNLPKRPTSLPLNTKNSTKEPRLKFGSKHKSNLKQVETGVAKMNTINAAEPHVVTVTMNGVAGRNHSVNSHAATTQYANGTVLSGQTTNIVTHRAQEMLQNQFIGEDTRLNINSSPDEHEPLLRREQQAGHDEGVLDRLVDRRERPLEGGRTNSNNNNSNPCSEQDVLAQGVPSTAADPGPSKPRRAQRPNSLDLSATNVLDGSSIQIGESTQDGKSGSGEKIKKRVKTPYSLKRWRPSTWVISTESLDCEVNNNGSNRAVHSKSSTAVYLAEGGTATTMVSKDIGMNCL", "procedure,_shortened": "as §1"}, "[20]": {"molecular_target": "T20, PRKG1 (Homo sapiens, UniProt Q13976)", "T20 construct": "tag (kind not specified); purchased Ambit (KinomeScan screening service)", "procedure,_shortened": "as §1"}, "[21]": {"molecular_target": "T21, EPHA4 (Homo sapiens, UniProt P54764)", "T21 construct": "purchased Ambit (KinomeScan screening service)", "procedure,_shortened": "as §1"}, "[22]": {"molecular_target": "T22, TNIK (Homo sapiens, UniProt Q9UKE5)", "T22 construct": "unspecified tag (tagged kinase); purchased Ambit (KinomeScan screening)", "procedure,_shortened": "as §1"}, "[23]": {"molecular_target": "T23, RAF1 (Homo sapiens, UniProt P04049)", "T23 construct": "tag (kind not specified); purchased Ambit (KinomeScan screening service)", "procedure,_shortened": "as §1"}, "[24]": {"molecular_target": "T24, PKAC-α (Homo sapiens, UniProt P17612)", "T24 construct": "unspecified tag; purchased Ambit (KinomeScan screening panel)", "procedure,_shortened": "as §1"}, "[25]": {"molecular_target": "T25, CSNK1A1L (Homo sapiens, UniProt Q8N752)", "T25 construct": "purchased Ambit (KinomeScan screening service)", "procedure,_shortened": "as §1"}, "[26]": {"molecular_target": "T26, AKT3 (Homo sapiens, UniProt Q9Y243)", "T26 construct": "purchased Ambit (KinomeScan screening)", "procedure,_shortened": "as §1"}, "[27]": {"molecular_target": "T27, BRSK1 (Homo sapiens, UniProt Q8TDC3)", "T27 construct": "unspecified tag (\"tagged kinases\"); purchased Ambit (KinomeScan screening)", "procedure,_shortened": "as §1"}, "[28]": {"molecular_target": "T28, ERBB4 (Homo sapiens, UniProt Q15303)", "T28 construct": "unspecified tag (\"tagged kinases\"); purchased Ambit (KinomeScan screening service)", "procedure,_shortened": "as §1"}, "[29]": {"molecular_target": "T29, PYK2 (Homo sapiens, UniProt Q14289)", "T29 construct": "tag (kind not specified); purchased Ambit (KinomeScan screening service)", "procedure,_shortened": "as §1"}, "[30]": {"molecular_target": "T30, FLT3(D835H) (Homo sapiens, UniProt P36888, D835H)", "T30 construct": "unspecified tag; purchased Ambit (KinomeScan screening service)", "procedure,_shortened": "as §1"}, "[31]": {"molecular_target": "T31, EGFR(G719C) (Homo sapiens, UniProt P00533, G719C)", "T31 construct": "unspecified tag; purchased Ambit (KinomeScan screening service)", "procedure,_shortened": "as §1"}, "[32]": {"molecular_target": "T32, PRKR (Homo sapiens, UniProt P19525)", "T32 construct": "tag (kind not specified); purchased Ambit (KinomeScan screening service)", "T32 sequence (P19525 whole entry)": "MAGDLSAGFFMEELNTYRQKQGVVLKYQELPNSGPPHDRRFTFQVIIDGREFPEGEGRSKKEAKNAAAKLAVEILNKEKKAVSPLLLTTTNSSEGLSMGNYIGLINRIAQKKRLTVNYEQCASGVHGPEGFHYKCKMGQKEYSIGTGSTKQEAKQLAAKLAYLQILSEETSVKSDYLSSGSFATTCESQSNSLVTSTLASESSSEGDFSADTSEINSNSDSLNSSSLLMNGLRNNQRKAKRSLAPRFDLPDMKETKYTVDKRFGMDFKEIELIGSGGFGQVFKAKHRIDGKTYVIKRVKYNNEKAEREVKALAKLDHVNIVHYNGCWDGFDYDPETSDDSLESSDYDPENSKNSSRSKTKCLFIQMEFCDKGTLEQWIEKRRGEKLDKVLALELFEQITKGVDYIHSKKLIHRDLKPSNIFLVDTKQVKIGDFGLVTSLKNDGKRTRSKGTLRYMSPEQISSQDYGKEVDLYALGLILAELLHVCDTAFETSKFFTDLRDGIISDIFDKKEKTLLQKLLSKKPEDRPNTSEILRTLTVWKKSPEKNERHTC", "procedure,_shortened": "as §1"}, "[33]": {"molecular_target": "T33, SNARK (Homo sapiens, UniProt Q9H093)", "T33 construct": "tag, kind not specified; purchased Ambit (KinomeScan screening service)", "T33 sequence (Q9H093 whole entry)": "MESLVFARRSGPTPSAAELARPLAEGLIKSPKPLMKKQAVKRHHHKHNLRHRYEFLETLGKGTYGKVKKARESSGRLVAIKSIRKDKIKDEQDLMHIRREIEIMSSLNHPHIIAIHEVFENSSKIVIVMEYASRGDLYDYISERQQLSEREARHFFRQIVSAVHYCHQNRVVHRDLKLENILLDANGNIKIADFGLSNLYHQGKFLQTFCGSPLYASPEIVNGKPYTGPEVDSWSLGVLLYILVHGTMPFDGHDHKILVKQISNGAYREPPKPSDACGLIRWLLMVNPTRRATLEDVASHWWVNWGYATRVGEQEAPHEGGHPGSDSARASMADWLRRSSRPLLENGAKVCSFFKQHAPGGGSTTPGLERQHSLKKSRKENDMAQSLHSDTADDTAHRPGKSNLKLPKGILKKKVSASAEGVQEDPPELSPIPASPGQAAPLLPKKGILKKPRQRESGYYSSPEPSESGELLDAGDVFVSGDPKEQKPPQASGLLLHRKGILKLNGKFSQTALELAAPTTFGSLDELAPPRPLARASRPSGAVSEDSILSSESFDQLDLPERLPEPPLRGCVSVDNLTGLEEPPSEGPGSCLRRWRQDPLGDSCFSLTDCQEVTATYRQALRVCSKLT", "procedure,_shortened": "as §1"}, "[34]": {"molecular_target": "T34, CDK3 (Homo sapiens, UniProt Q00526)", "T34 construct": "purchased Ambit (KinomeScan screening)", "T34 sequence (Q00526 whole entry)": "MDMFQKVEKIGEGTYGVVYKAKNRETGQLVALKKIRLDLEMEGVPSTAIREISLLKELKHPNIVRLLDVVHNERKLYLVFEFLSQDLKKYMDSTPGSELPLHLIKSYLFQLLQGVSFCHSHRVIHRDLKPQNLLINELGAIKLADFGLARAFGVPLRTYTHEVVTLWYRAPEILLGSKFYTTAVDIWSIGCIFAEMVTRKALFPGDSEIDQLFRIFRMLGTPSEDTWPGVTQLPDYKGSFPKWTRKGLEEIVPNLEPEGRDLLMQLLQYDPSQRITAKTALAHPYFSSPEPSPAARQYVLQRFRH", "procedure,_shortened": "as §1"}, "[35]": {"test_system": "PAK5", "procedure,_shortened": "as §1"}, "[36]": {"molecular_target": "T35, PLK4 (Homo sapiens, UniProt O00444)", "T35 construct": "purchased Ambit (KinomeScan screening service)", "T35 sequence (O00444 whole entry)": "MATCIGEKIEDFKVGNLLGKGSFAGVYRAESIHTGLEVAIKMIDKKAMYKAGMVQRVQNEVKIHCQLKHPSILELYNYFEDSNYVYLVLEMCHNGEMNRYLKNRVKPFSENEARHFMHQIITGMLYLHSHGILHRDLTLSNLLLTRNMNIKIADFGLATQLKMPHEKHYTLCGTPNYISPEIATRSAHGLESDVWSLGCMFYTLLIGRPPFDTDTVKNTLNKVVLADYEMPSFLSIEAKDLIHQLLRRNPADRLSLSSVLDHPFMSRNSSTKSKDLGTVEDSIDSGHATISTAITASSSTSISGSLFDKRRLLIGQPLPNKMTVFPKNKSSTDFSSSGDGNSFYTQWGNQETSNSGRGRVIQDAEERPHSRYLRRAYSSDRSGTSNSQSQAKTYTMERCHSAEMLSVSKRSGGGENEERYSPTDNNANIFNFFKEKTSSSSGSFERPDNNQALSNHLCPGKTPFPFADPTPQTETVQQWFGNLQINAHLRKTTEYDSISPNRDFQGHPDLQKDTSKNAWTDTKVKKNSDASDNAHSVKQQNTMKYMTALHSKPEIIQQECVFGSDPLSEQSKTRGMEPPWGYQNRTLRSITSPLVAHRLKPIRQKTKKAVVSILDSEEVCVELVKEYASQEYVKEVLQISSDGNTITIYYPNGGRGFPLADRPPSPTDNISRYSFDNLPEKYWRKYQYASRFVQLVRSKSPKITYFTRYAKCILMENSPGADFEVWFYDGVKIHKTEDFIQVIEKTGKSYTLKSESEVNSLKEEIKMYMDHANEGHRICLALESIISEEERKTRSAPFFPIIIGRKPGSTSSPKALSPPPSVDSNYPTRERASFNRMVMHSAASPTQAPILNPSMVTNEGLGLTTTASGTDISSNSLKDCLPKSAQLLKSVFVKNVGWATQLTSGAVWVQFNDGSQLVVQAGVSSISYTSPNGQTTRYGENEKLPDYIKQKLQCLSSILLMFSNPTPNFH", "procedure,_shortened": "as §1"}},
  "data": [
    {"compound": "Cc1ccccc1-n1c(C(C)Nc2nc(N)nc3nc[nH]c23)nc2cccc(C)c2c1=O", "note": "(stereo not shown) [CAL-130]", "values": [
      {"measurement": "Percent of Control Binding", "setting": "[1]", "result": 100, "unit": "%"},
      {"measurement": "Percent of Control Binding", "setting": "[2]", "result": 100, "unit": "%"},
      {"measurement": "Percent of Control Binding", "setting": "[3]", "result": 100, "unit": "%"},
      {"measurement": "Percent of Control Binding", "setting": "[4]; PI3KCD (Table 2)", "result": 0.1, "unit": "%"},
      {"measurement": "Percent of Control Binding", "setting": "[4]; PIK3CD / PI3Kδ (Table 1)", "result": 0.2, "unit": "%"},
      {"measurement": "Percent of Control Binding", "setting": "[5]", "result": 100, "unit": "%"},
      {"measurement": "Percent of Control Binding", "setting": "[6]", "result": 100, "unit": "%"},
      {"measurement": "Percent of Control Binding", "setting": "[7]", "result": 100, "unit": "%"},
      {"measurement": "Percent of Control Binding", "setting": "[8]", "result": 100, "unit": "%"},
      {"measurement": "Percent of Control Binding", "setting": "[9]", "result": 100, "unit": "%"},
      {"measurement": "Percent of Control Binding", "setting": "[10]", "result": 100, "unit": "%"},
      {"measurement": "Percent of Control Binding", "setting": "[11]", "result": 100, "unit": "%"},
      {"measurement": "Percent of Control Binding", "setting": "[12]", "result": 100, "unit": "%"},
      {"measurement": "Percent of Control Binding", "setting": "[13]", "result": 100, "unit": "%"},
      {"measurement": "Percent of Control Binding", "setting": "[14]", "result": 100, "unit": "%"},
      {"measurement": "Percent of Control Binding", "setting": "[15]", "result": 100, "unit": "%"},
      {"measurement": "Percent of Control Binding", "setting": "[16]", "result": 100, "unit": "%"},
      {"measurement": "Percent of Control Binding", "setting": "[17]", "result": 100, "unit": "%"},
      {"measurement": "Percent of Control Binding", "setting": "[18]", "result": 100, "unit": "%"},
      {"measurement": "Percent of Control Binding", "setting": "[19]", "result": 100, "unit": "%"},
      {"measurement": "Percent of Control Binding", "setting": "[20]", "result": 100, "unit": "%"},
      {"measurement": "Percent of Control Binding", "setting": "[21]", "result": 100, "unit": "%"},
      {"measurement": "Percent of Control Binding", "setting": "[22]", "result": 100, "unit": "%"},
      {"measurement": "Percent of Control Binding", "setting": "[23]", "result": 100, "unit": "%"},
      {"measurement": "Percent of Control Binding", "setting": "[24]", "result": 100, "unit": "%"},
      {"measurement": "Percent of Control Binding", "setting": "[25]", "result": 100, "unit": "%"},
      {"measurement": "Percent of Control Binding", "setting": "[26]", "result": 100, "unit": "%"},
      {"measurement": "Percent of Control Binding", "setting": "[27]", "result": 100, "unit": "%"},
      {"measurement": "Percent of Control Binding", "setting": "[28]", "result": 100, "unit": "%"},
      {"measurement": "Percent of Control Binding", "setting": "[29]", "result": 100, "unit": "%"},
      {"measurement": "Percent of Control Binding", "setting": "[30]", "result": 100, "unit": "%"},
      {"measurement": "Percent of Control Binding", "setting": "[31]", "result": 100, "unit": "%"},
      {"measurement": "Percent of Control Binding", "setting": "[32]", "result": 100, "unit": "%"},
      {"measurement": "Percent of Control Binding", "setting": "[33]", "result": 100, "unit": "%"},
      {"measurement": "Percent of Control Binding", "setting": "[34]", "result": 100, "unit": "%"},
      {"measurement": "Percent of Control Binding", "setting": "[35]", "result": 100, "unit": "%"},
      {"measurement": "Percent of Control Binding", "setting": "[36]", "result": 100, "unit": "%"}
    ]}
  ]
}
